Values quoted from earlier work in US8389024B2, “Abscisic acid against cancer” (priority 2005, dated 2013).
Read-outs that look alike come from different tables or passages of the source. Blank lines part the entries; values can stand above or below the molecule they belong to.

Experiments:
[1] = tested on: head and neck squamous cell carcinoma; conditions: in vivo
[2] = tested on: lymphoblastic leukemia, prostate, breast and melanoma human cancer cells
[3] = tested on: TCA8113 (human oral carcinoma); conditions: TCA8113 cells in vitro
humans with cancer = conditions: 62 random cases, inconclusive cases not considered; digestive treatment with ABA plus vaccine against P. crytocides
stomatal opening = conditions: 10 mcM ABA extracellular application
[4] = tested on: HL-60 (promyelocytic leukemia); conditions: HL-60 tumor cells
TNFALFA = conditions: human monocytes, murine microglia and murine macrophages
DU-145 (prostate cancer) = conditions: DU-145 tumor cells
[5] = tested on: four human cancer cell lines (HELA, DU145, HCT116 AND K562)
[6] = tested on: C 1498 transplanted tumor with myeloid leukemia; conditions: for rate of survival at the end of 14 days: groups of 10 mice, treated 7 days; for survival: oral
[7] = tested on: human and murine pancreatic beta cells
[8] = the mentioned concentration (50 mg/ml), Sigma-Aldrich

half-lives (catabolism) (leaf discs of V. Faba): 30 to 32 h
Molecule: CC1=CC(=O)CC(C)(C)C1(O)/C=C/C(C)=C\C(=O)O (racemic) [racemic ABA (R)]

Molecule: CC1=C(/C=C/C(C)=C/C=C/C(C)=C\C(=O)O)C(C)(C)CCC1 [ISOTRETINOIN]
effectiveness in chemoprevention trial [1]: not effective

Molecule: CC/C=C\CC1C(=O)CCC1CC(=O)OC (stereo not drawn) [MJ, methyl jasmonate]
proliferation or apoptosis of mammalian cancer cells [2]: can suppress the proliferation or cause apoptosis

Molecule: CC/C=C\C[C@H]1C(=O)CC[C@@H]1CC(=O)O [JA, jasmonic acid]
proliferation or apoptosis of mammalian cancer cells [2]: can suppress the proliferation or cause apoptosis

Molecule: O=C([O-])c1ccccc1O.[Na+] [SA, sodium salicylate]
proliferation or apoptosis of mammalian cancer cells [2]: can suppress the proliferation or cause apoptosis

Molecule: [S-(Z,E)]-5-(1-Hydroxy-2,6,6-trimethyl-4-oxo-2-cyclohexen-1-yl)-3-methyl-2,4-pentadienoic acid [ABA]
expression of differentiation and apoptosis markers [3]: expression of RARBETA, involucrin protein and caspase-3 mRNA
success rate (humans with cancer): around 82%
inhibition of stomatal opening (stomatal opening; pH 6.15): 98%
inhibition of stomatal opening (stomatal opening; pH 8.0): 57%
changes in morphology of cancer cells [4]: absence of tumor cell nuclear membrane microvilli and presentation of typical apoptosis characteristics
nuclear protein Ki67 expressed in proliferating tumor cells (nuclear protein Ki67): reduced
TNFALFA (TNFALFA): increased
changes in morphology of cancer cells (DU-145 (prostate cancer)): growth in poor condition and nuclear pycnosis
functional activities of human granulocytes (human granulocytes): stimulates several functional activities as phagocytosis, reactive oxygen species (ROS) and nitric oxide production, and chemotaxis
angiogenesis (a variety of tumor cells): inhibit angiogenesis
apoptosis (a variety of tumor cells): produce apoptosis
cell cycle and cell division of proliferating tumor cells (a variety of tumor cells): make proliferating tumor cells stagnate in S-phase and stop cell division
differentiation of cancer cells (a variety of tumor cells): become cancer cells in normal cells
apoptosis [5]: induction of apoptosis
cell cycle progression [5]: changed cell cycle progression
cell proliferation rate [5]: reduced cell proliferation rate
luminescence (indicator of reduced negative surface charge) [5]: reduced luminescence
tumor growth [5]: tumor growth reduction
EPD after ABA treatment (Lemna gibba G1; after 15 hours ABA treatment, from −109 mV): −194 mV
potential increase in average (EPD) (Lemna gibba G1; treatment with 10-100 mcm ABA): 85 mV
rate of survival at the end of 14 days ([6]; Group II, ABA 1 mg/kg (i.p)): 9 survivors
rate of survival at the end of 14 days ([6]; Group III, ABA 10 mg/kg (i.p)): 10 survivors
rate of survival at the end of 14 days ([6]; Group IV, ABA 10 mg/kg (oral)): 6 survivors
rate of survival at the end of 14 days ([6]; Group V, ABA 100 mg/kg (oral)): 9 survivors
survivors ([6]; group number II, 1 mg/kg): 90%
inhibition of the tumor system (C1498) in mice (C57BL/6J) ([6]; mouse, in vivo): marked effect in the inhibition
survival ([6]; dose at 10 mg/kg): 60%
survival ([6]; dose at 100 mg/kg): 90%
insulin secretion [7]: endogenous stimulator of insulin secretion

half-lives (catabolism) (leaf discs of V. Faba): 6 to 8 h
Molecule: CC1=CC(=O)CC(C)(C)[C@@]1(O)/C=C/C(C)=C\C(=O)O [natural ABA (S)]

appearance of the solution in ethanol [8]: clear to slightly hazy
Molecule: CC1=CC(=O)CC(C)(C)C1(O)/C=C/C(C)=C\C(=O)O (racemic) [(+/−)-Abscisic acid]
